Assay results as given in patent US9956242B2, “Pharmaceutical composition for prevention or treatment of cognitive function disorders comprising spinosin” (MINISTRY OF FOOD AND DRUG SAFETY, priority 2011, dated 2018).
Read-outs that look alike come from different tables or passages of the source.

Key:
[1] = test system: mice with memory impairment induced by scopolamine; details: for Present Experiment latency time: 24 hours after learning; for Learning latency time: learning trial; for latency time increase compared to control group 2 (scopolamine only): present experiment
[2] = test system: mice with memory impairment induced by scopolamine; assay: Passive avoidance test 2 (zizyphi spinosi semen extract), scopolamine-induced memory impairment; format: in vivo, ICR mice; details: control group 1, donepezil 5 mg/Kg, scopolamine 1 mg/Kg i.p.
Description: (§1) 6-week-old ICR mice (Orient Bio Inc., Korea), weighing about 26 to 28 g, were fed with water and food freely available for 5 days in an environment, where the temperature was about 23±2° C., the humidity was about 55±10%, and the light-dark cycle was 12 hours (Animal Laboratory at the College of Pharmacy in Kyung Hee university), and used in the experiments.
After 30 minutes, learning about the passive avoidance test apparatus was performed on the mice in drug administration groups 1 to 4 and control groups 1 to 3, respectively. Specifically, the mice were placed in the first space kept light, and after a seek time of about 20 seconds, the guillotine door was opened, and the latency time taken for the mice to move to the second space kept dark was measured.
After 24 hours since the learning was completed, the present experiment was performed on drug administration groups 1 to 4 and control groups 1 to 3, respectively. The latency tire taken for all four feet of the mouse to enter the dark space after the guillotine door was opened from the seek time of 10 seconds was measured up to 300 seconds. […]

[3] = test system: mice with memory impairment induced by scopolamine; assay: Y-maze test, scopolamine-induced memory impairment; format: in vivo, ICR mice; details: control group 1, donepezil 5 mg/Kg; scopolamine 1 mg/Kg i.p.
Description: as §1
A Y-maze was prepared for the experiment. The Y-maze had three arms, in which each arm was 42 cm in length, 3 cm in width, and 12 cm in height, the angle formed by three arms was 120 degrees, and the Y-maze was made of black polyvinyl resin.
160 mg of the zizyphi spinosi semen extract of Example 1 was dissolved in 4 mL of 10% Tween 80 (Polyoxyethylene sorbitan monooleate: Sigma, U.S.A.) and administered to drug administration groups 1 and 2 at doses of 100 mg/Kg and 200 mg/Kg. […]
After 30 minutes, the mice in drug administration groups 1 and 2 and control groups 1 to 3 were carefully placed on one of three arms of the Y-maze, divided into A, B, and C, respectively, and allowed to freely move, and then the arms where the mice entered were recorded. At this time, only the case where the mouse’ tail fully entered the arm was recorded as the arm where the experimental animal entered, and the case where the mouse entered the same arm was also recorded. […]

[4] = test system: mice with memory impairment induced by scopolamine; assay: Morris water maze test, scopolamine-induced memory impairment; format: in vivo, ICR mice; details: control group 1, donepezil 5 mg/Kg, scopolamine 1 mg/Kg i.p.
Description: as §1
A Morris water maze test apparatus was prepared for the experiment. Four labels such as star, square, triangle, and circle were put at regular intervals on a circular pool of 90 cm in diameter and 45 cm in height, and a platform of 29 cm in height was positioned below the star. Water was filled up to 0.5 cm from the platform (water temperature: 21±1° C.) and became cloudy with pigment such that the platform was not visible from the surface of the water.
160 mg of the zizyphi spinosi semen extract of Example 1 was dissolved in 4 mL of 10% Tween 80 (Polyoxyethylene sorbitan monooleate: Sigma, U.S.A.) and administered to drug administration groups 1 and 2 at doses of 100 mg/Kg and 200 mg/Kg. Meanwhile, donepezil (Sigma-Aldrich Chemistry Co.) was administered to control group 1 at a dose of 5 mg/Kg, and 10% Tween 80 was administered to control groups 2 and 3 at a dose of 0.15 mL.
After 30 minutes, the time taken for the mice, put down in one section of the pool, in drug administration groups 1 and 2 and control groups 1 to 3 to reach the platform was measured for 60 seconds. After 30 minutes, the time taken for the mice, repositioned to the original position, to reach the platform was measured until 60 seconds. The above-described process was repeated 4 times, and the average values were obtained. The experiment was performed in the same manner as on the first day while administering the drugs for 4 days, except that the position where the mice were first put down was changed.

[5] = control group 1, donepezil 5 mg/Kg, scopolamine 1 mg/Kg i.p.

COc1cc2c(cc1OC)C(=O)C(CC1CCN(Cc3ccccc3)CC1)C2 (stereo not drawn) [donepezil]
Present Experiment latency time [1, 5]: 151.9 ± 37.24 s | Learning latency time [1, 5]: 25.13 ± 13.68 s | Present Experiment latency time ([2]; 24 hours after learning): 140.5 ± 25.47 s | Learning latency time ([2]; learning trial): 17.25 ± 5.365 s | Alternation behavior (%) [3]: 65.71 ± 10.19% | Total entry (total number of arm entries) [3]: 34.75 ± 7.265 | Time to reach the platform ([4]; 1st day): 59.34 ± 2.055 s | Time to reach the platform ([4]; 2nd day): 48.75 ± 14.98 s | Time to reach the platform ([4]; 3rd day): 42.80 ± 15.16 s | Time to reach the platform ([4]; 4th day): 34.35 ± 13.80 s

COc1cc2oc(-c3ccc(O)cc3)cc(=O)c2c(O)c1[C@@H]1O[C@H](CO)[C@@H](O)[C@H](O)[C@H]1O[C@@H]1O[C@H](CO)[C@@H](O)[C@H](O)[C@H]1O [spinosin, 6-(2-O-beta-D-Glocopyranosyl-beta-D-glucopyranosyl)-5-hydroxy-2-(4-hydroxyphenyl)-7-methoxy-4H-1-benzopyran-4-one]
latency time increase compared to control group 2 (scopolamine only) ([1]; 2.5 mg/Kg): about 20 seconds | Learning latency time ([1]; 2.5 mg/Kg, scopolamine 1 mg/Kg i.p. 30 min later): 25.88 ± 13.72 s | Present Experiment latency time ([1]; 2.5 mg/Kg, scopolamine 1 mg/Kg i.p., measured up to 300 seconds): 59.13 ± 46.88 s | latency time increase compared to control group 2 (scopolamine only) ([1]; 5 mg/Kg): about 2.5 times | Learning latency time ([1]; 5 mg/Kg, scopolamine 1 mg/Kg i.p. 30 min later): 29.38 ± 18.17 s | Present Experiment latency time ([1]; 5 mg/Kg, scopolamine 1 mg/Kg i.p., measured up to 300 seconds): 107.1 ± 91.70 s | latency time increase compared to control group 2 (scopolamine only) ([1]; 10 mg/Kg): about 3 times | Learning latency time ([1]; 10 mg/Kg, scopolamine 1 mg/Kg i.p. 30 min later): 20.50 ± 9.196 s | Present Experiment latency time ([1]; 10 mg/Kg, scopolamine 1 mg/Kg i.p., measured up to 300 seconds): 131.3 ± 69.94 s | latency time increase compared to control group 2 (scopolamine only) ([1]; 20 mg/Kg): about 3.5 times | Learning latency time ([1]; 20 mg/Kg, scopolamine 1 mg/Kg i.p. 30 min later): 36.00 ± 16.45 s | Present Experiment latency time ([1]; 20 mg/Kg, scopolamine 1 mg/Kg i.p., measured up to 300 seconds): 146.0 ± 83.53 s | latency time compared to control group 2 (in words) ([1]; drug administration groups 1 to 4, 2.5 to 20 mg/Kg): significantly increased | memory and learning ability compared to control group 1 (donepezil) (in words) ([1]; drug administration groups 3 and 4, 10 and 20 mg/Kg): improved to an extent similar to that in control group 1
